Results published in publication PMC11858653, “Design, Synthesis and Bioactive Evaluation of Topo I/c-MYC Dual Inhibitors to Inhibit Oral Cancer via Regulating the PI3K/AKT/NF-κB Signaling Pathway” (Molecules, 2025).

Tests used:
SV-HUC-1 = assay: MTT assay, normal cell line SV-HUC-1; format: cell-based; conditions: mean ± SD
Experimental: (§1) Having evaluated their Topo I inhibitory activity, the antiproliferative activity of the target compounds against some common human cancer cell lines (NCI-H460, A549, ACHN, Cal27 and MGC-803) and one normal cell line (SV-HUC-1) was tested via an MTT assay. TPT, the first Topo I inhibitor approved in clinics, and cisplatin (CDDP), a commonly selected anticancer drug for treating head and neck malignancies, were used as the positive controls.
(§2) Human oral cancer Cal27 cells were seeded in 96-well plates and incubated overnight in 180 μL of medium containing 10% Fetal Bovine Serum (Gibco, San Francisco, CA, USA). […] Then, 10 μL of 5 mg/mL MTT solution was added to each well and incubated at 37 °C for 4 h. After 4 h of incubation at 37 °C, the MTT-containing medium was removed and DMSO was added to each well and the absorbance at 570 nm and 630 nm was measured using a microplate reader (CYTATION 3, Burton, Westwood, NJ, USA). Survival/% = (mean OD of experimental group/mean OD of control group) × 100%. Each test was repeated at least three times.

Cal27 = assay: MTT antiproliferative assay, Cal27; format: cell-based, human; conditions: mean ± SD
Experimental: as §1, §2

ACHN = assay: MTT antiproliferative assay, ACHN; format: cell-based, human; conditions: 48 h, mean ± SD
Experimental: as §1, §2

NCI-H460 = assay: MTT antiproliferative assay, NCI-H460; format: cell-based, human; conditions: mean ± SD
Experimental: as §1, §2

MGC-803 = assay: MTT antiproliferative assay, MGC-803; format: cell-based, human; conditions: mean ± SD
Experimental: as §1, §2

A549 = assay: MTT antiproliferative assay, A549; format: cell-based, human; conditions: mean ± SD
Experimental: as §1, §2

O=S1(=O)c2ncccc2-c2nc(N3CCCC3)c3ccccc3c21 [7al, 5-(Pyrrolidin-1-yl)pyrido[3′,2′:4,5]thieno[3,2-c]isoquinoline 11,11-dioxide]
IC50 (SV-HUC-1; SV-HUC1, 48 h): > 100 µM | IC50 (Cal27; Homo sapiens, CAL-27, 48 h): > 100 µM | IC50 (ACHN; Homo sapiens, ACHN): > 100 µM | IC50 (NCI-H460; Homo sapiens, NCI-H460, 48 h): > 100 µM | IC50 (MGC-803; Homo sapiens, MGC-803, 48 h): > 100 µM | IC50 (A549; Homo sapiens, A549, 48 h): > 100 µM

Cc1cc(C)c2c(n1)S(=O)(=O)c1c-2nc(NCCCn2ccnc2)c2ccccc12 [7bj, 5-((3-(1H-Imidazol-1-yl)propyl)amino)-7,9-dimethylpyrido[3′,2′:4,5]thieno[3,2-c]isoquinoline 11,11-dioxide]
IC50 (SV-HUC-1; SV-HUC1, 48 h): > 100 µM | IC50 (Cal27; Homo sapiens, CAL-27, 48 h): > 100 µM | IC50 (ACHN; Homo sapiens, ACHN): > 100 µM | IC50 (NCI-H460; Homo sapiens, NCI-H460, 48 h): > 100 µM | IC50 (MGC-803; Homo sapiens, MGC-803, 48 h): > 100 µM | IC50 (A549; Homo sapiens, A549, 48 h): > 100 µM

Cc1cc(-c2ccccc2)nc2c1-c1nc(NCCN(C)C)c3ccccc3c1S2(=O)=O [7ca, 5-((2-(Dimethylamino)ethyl)amino)-7-methyl-9-phenylpyrido[3′,2′:4,5]-thieno[3,2-c]isoquinoline 11,11-dioxide]
IC50 (SV-HUC-1; 48 h): > 100 µM | IC50 (Cal27; 48 h): > 100 µM | IC50 (ACHN): > 100 µM | IC50 (NCI-H460; 48 h): > 100 µM | IC50 (MGC-803; 48 h): 53.1 ± 3.78 µM | IC50 (A549; 48 h): > 100 µM

CCN(CC)CCNc1nc2c(c3ccccc13)S(=O)(=O)c1nc(-c3ccccc3)cc(C)c1-2 [7cb, 5-((2-(Diethylamino)ethyl)amino)-7-methyl-9-phenylpyrido[3′,2′:4,5]thieno[3,2-c]isoquinoline 11,11-dioxide]
IC50 (SV-HUC-1; 48 h): > 100 µM | IC50 (Cal27; 48 h): 20.3 ± 2.34 µM | IC50 (ACHN): > 100 µM | IC50 (NCI-H460; 48 h): > 100 µM | IC50 (MGC-803; 48 h): > 100 µM | IC50 (A549; 48 h): 37.39 ± 0.21 µM

Cc1cc(-c2ccccc2)nc2c1-c1nc(NCCN3CCCC3)c3ccccc3c1S2(=O)=O [7cc, 7-Methyl-9-phenyl-5-((2-(pyrrolidin-1-yl)ethyl)amino)pyrido[3′,2′:4,5]thieno[3,2-c]isoquinoline 11,11-dioxide]
IC50 (SV-HUC-1; 48 h): > 100 µM | IC50 (Cal27; 48 h): > 100 µM | IC50 (ACHN): > 100 µM | IC50 (NCI-H460; 48 h): > 100 µM | IC50 (MGC-803; 48 h): > 100 µM | IC50 (A549; 48 h): > 100 µM

Cc1cc(-c2ccccc2)nc2c1-c1nc(NCCN3CCOCC3)c3ccccc3c1S2(=O)=O [7cd, 7-Methyl-5-((2-morpholinoethyl)amino)-9-phenylpyrido[3′,2′:4,5]thieno[3,2-c]isoquinoline 11,11-dioxide]
IC50 (SV-HUC-1; 48 h): > 100 µM | IC50 (Cal27; 48 h): > 100 µM | IC50 (ACHN): > 100 µM | IC50 (NCI-H460; 48 h): > 100 µM | IC50 (MGC-803; 48 h): > 100 µM | IC50 (A549; 48 h): 78.9 ± 2.86 µM

Cc1cc(-c2ccccc2)nc2c1-c1nc(NCCN3CCCCC3)c3ccccc3c1S2(=O)=O [7ce, 7-Methyl-9-phenyl-5-((2-(piperidin-1-yl)ethyl)-amino)pyrido[3′,2′:4,5]thieno[3,2-c]isoquinoline 11,11-dioxide]
IC50 (SV-HUC-1; 48 h): > 100 µM | IC50 (Cal27; 48 h): 56.8 ± 2.59 µM | IC50 (ACHN): > 100 µM | IC50 (NCI-H460; 48 h): 93 ± 8.03 µM | IC50 (MGC-803; 48 h): 94 ± 2.15 µM | IC50 (A549; 48 h): 86.5 ± 3.15 µM

Cc1cc(-c2ccccc2)nc2c1-c1nc(NCCCN3CCOCC3)c3ccccc3c1S2(=O)=O [7ci, 7-Methyl-5-((3-morpholinopropyl)amino)-9-phenylpyrido[3′,2′:4,5]thieno[3,2-c]isoquinoline 11,11-dioxide]
IC50 (SV-HUC-1; 48 h): > 100 µM | IC50 (Cal27; 48 h): > 100 µM | IC50 (ACHN): > 100 µM | IC50 (NCI-H460; 48 h): > 100 µM | IC50 (MGC-803; 48 h): > 100 µM | IC50 (A549; 48 h): > 100 µM

Cc1cc(-c2ccccc2)nc2c1-c1nc(NCCCn3ccnc3)c3ccccc3c1S2(=O)=O [7cj, 5-((3-(1H-imidazol-1-yl)propyl)amino)-7-methyl-9-phenylpyrido[3′,2′:4,5]thieno[3,2-c]isoquinoline 11,11-dioxide]
IC50 (SV-HUC-1; 48 h): > 100 µM | IC50 (Cal27; 48 h): > 100 µM | IC50 (ACHN): > 100 µM | IC50 (NCI-H460; 48 h): > 100 µM | IC50 (MGC-803; 48 h): > 100 µM | IC50 (A549; 48 h): > 100 µM

CC[C@@]1(O)C(=O)OCc2c1cc1n(c2=O)Cc2cc3c(CN(C)C)c(O)ccc3nc2-1 [TPT, topotecan, reference compound]
IC50 (SV-HUC-1; SV-HUC1, 48 h): 30.8 ± 1.58 µM | IC50 (Cal27; Homo sapiens, CAL-27, 48 h): 2.33 ± 0.12 µM | IC50 (ACHN; Homo sapiens, ACHN): 4.32 ± 0.63 µM | IC50 (NCI-H460; Homo sapiens, NCI-H460, 48 h): 21.4 ± 1.33 µM | IC50 (MGC-803; Homo sapiens, MGC-803, 48 h): 6.36 ± 1.09 µM | IC50 (A549; Homo sapiens, A549, 48 h): 3.84 ± 0.56 µM
